We go through 11 compounds from ChEMBL document CHEMBL5291721, “A preclinical secondary pharmacology resource illuminates target-adverse drug reaction associations of marketed drugs” (Nat Commun, 2023).

For one experiment, the target named is Cannabinoid receptor 1 (Homo sapiens, UniProt P21554). In kind it is functional, cell-based.
In experiment [1] the target is Growth hormone secretagogue receptor type 1 (Homo sapiens, UniProt Q92847).
The target of experiment [2] is T1, Cholecystokinin receptor type A (Homo sapiens, UniProt P32238).
T1 sequence (P32238 whole entry): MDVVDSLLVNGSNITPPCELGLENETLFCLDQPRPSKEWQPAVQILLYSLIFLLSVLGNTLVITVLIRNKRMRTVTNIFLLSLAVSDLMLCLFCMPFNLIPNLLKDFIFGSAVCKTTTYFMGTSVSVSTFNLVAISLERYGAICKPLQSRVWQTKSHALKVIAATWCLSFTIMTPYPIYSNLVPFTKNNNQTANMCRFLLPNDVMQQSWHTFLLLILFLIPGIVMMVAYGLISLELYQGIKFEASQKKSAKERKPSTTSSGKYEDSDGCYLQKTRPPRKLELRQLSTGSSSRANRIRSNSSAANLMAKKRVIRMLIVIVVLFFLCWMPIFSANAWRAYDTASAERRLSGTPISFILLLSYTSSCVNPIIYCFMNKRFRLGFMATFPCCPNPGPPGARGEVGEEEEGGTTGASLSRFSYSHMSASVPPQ

Experiment [3] addresses T2, Neuropeptide Y receptor type 1 (Homo sapiens, UniProt P25929).
T2 sequence (P25929 whole entry): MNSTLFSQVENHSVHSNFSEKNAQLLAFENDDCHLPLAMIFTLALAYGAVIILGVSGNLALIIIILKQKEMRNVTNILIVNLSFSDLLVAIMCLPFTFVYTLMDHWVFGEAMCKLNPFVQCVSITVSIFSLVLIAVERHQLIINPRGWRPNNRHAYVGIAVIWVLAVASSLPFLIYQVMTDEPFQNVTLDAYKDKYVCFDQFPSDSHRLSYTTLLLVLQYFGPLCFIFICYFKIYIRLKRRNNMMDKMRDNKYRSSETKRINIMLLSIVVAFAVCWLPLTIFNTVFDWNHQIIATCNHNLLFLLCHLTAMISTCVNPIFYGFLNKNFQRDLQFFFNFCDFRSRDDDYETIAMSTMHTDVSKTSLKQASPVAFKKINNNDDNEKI

The target of experiment [4] is Glutamate receptor ionotropic, NMDA 1 (Rattus norvegicus, UniProt P35439).
For experiment [5], the target named is Kappa-type opioid receptor (Homo sapiens, UniProt P41145).
Sequence of Kappa-type opioid receptor (P41145 whole entry): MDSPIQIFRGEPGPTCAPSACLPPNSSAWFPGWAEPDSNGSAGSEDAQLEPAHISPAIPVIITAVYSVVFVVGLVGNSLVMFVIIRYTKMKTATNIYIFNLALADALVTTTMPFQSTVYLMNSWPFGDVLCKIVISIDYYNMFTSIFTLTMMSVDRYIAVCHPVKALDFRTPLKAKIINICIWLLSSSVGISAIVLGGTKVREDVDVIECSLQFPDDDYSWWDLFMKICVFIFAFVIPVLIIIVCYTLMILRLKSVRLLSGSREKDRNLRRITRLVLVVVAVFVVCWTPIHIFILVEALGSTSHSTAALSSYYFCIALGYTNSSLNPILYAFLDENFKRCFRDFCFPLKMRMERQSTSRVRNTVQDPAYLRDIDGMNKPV
Experiment [6] concerns the target 5-hydroxytryptamine receptor 2B (Homo sapiens, UniProt P41595). The format is functional, cell-based.
The target in experiment [7] is cGMP-inhibited 3',5'-cyclic phosphodiesterase 3A (Homo sapiens, UniProt Q14432). In kind it is functional.
Sequence of cGMP-inhibited 3',5'-cyclic phosphodiesterase 3A (Q14432 whole entry): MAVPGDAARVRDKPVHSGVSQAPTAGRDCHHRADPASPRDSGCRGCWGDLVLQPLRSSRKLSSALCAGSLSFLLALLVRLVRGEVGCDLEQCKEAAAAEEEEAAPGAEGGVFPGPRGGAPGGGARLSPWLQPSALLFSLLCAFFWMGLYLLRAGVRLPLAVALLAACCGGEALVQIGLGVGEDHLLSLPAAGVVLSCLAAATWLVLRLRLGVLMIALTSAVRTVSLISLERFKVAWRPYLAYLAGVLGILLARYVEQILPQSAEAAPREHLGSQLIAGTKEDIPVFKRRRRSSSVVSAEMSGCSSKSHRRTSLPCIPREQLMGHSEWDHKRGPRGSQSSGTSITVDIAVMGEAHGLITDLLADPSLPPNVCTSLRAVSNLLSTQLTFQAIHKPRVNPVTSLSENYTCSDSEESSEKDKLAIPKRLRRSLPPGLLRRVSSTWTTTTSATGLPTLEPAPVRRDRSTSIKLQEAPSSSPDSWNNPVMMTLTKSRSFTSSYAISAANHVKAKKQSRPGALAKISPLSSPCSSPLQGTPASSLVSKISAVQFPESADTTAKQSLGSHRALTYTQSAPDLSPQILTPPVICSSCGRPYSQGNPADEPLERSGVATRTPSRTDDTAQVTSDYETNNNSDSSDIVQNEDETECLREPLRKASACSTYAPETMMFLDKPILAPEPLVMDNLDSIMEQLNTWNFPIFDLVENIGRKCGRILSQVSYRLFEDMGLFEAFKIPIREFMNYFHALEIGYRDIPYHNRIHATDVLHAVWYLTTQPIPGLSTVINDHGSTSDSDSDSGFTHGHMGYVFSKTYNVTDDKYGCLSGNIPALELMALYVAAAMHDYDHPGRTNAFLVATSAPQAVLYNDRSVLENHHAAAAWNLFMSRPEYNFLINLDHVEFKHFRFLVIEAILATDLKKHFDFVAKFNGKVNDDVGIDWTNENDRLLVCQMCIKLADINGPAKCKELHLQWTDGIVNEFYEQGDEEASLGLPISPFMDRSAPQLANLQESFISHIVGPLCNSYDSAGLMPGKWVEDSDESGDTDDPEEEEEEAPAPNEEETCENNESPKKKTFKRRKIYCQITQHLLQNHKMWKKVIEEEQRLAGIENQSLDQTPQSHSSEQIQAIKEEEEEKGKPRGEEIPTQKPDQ
Experiment [8] concerns the target T3, Type-1 angiotensin II receptor (Homo sapiens, UniProt P30556).
T3 sequence (P30556 whole entry): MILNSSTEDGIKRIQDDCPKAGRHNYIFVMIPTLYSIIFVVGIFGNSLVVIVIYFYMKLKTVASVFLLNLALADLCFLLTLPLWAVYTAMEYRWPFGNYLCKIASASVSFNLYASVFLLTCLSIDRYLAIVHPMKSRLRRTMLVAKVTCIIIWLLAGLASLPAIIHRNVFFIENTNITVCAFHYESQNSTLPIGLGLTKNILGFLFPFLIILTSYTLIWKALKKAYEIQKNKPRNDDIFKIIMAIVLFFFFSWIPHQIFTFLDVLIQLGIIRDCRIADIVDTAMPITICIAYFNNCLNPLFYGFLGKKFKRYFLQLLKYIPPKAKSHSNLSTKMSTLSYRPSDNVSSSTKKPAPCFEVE

In the next experiment the target is Histamine H1 receptor (Homo sapiens, UniProt P35367).
Sequence of Histamine H1 receptor (P35367 whole entry): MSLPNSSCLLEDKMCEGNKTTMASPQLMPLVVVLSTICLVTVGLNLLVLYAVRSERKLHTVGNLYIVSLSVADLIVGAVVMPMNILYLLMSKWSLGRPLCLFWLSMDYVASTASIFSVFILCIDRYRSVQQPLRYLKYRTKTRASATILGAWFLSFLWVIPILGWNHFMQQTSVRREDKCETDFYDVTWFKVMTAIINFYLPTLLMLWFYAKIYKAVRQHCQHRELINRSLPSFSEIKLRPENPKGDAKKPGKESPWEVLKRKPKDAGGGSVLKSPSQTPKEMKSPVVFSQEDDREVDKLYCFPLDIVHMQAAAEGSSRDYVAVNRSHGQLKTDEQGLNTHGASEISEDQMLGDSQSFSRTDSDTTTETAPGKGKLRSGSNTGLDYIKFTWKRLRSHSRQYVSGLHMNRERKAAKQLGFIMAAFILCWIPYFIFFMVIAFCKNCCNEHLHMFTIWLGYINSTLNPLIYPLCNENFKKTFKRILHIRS
Experiment [9] has as its target 3',5'-cyclic-AMP phosphodiesterase 4D (Homo sapiens, UniProt Q08499). In kind it is functional.
For experiment [10], the target named is T4, 5-hydroxytryptamine receptor 3A (Homo sapiens, UniProt P46098).
T4 sequence (P46098 whole entry): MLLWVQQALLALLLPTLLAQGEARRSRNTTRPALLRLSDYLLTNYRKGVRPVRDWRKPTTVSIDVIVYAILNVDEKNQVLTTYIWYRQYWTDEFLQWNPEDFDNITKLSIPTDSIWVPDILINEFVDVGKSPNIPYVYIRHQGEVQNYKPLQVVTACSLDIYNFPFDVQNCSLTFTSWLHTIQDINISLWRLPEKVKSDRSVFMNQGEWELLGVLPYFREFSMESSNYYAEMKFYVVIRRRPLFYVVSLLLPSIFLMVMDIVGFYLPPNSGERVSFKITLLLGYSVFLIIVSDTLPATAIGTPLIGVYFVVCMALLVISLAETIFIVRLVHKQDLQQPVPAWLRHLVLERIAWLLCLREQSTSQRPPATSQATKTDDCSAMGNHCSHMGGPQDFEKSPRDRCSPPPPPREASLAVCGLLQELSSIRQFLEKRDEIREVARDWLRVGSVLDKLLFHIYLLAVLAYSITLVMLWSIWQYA
The format is functional.

In a further experiment the target is T5, Estrogen receptor (Homo sapiens, UniProt P03372).
T5 sequence (P03372 whole entry): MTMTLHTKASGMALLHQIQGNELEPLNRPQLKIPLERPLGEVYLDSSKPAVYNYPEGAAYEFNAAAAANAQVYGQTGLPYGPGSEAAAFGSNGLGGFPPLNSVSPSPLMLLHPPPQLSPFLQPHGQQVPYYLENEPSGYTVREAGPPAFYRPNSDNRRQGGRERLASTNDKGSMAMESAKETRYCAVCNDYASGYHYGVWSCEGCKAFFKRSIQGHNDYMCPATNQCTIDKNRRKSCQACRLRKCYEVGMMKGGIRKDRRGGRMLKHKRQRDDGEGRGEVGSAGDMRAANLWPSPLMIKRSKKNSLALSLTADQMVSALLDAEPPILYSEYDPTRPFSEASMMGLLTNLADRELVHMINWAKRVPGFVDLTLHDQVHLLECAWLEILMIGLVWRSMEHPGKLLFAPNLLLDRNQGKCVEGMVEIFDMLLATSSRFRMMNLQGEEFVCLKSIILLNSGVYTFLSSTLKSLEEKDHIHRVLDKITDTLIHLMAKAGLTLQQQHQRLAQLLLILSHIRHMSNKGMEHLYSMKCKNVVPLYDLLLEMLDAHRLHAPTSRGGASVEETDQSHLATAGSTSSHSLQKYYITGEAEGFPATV

For experiment [11], the target named is Neuronal acetylcholine receptor subunit alpha-4 (Homo sapiens, UniProt P43681).
Sequence of Neuronal acetylcholine receptor subunit alpha-4 (P43681 whole entry): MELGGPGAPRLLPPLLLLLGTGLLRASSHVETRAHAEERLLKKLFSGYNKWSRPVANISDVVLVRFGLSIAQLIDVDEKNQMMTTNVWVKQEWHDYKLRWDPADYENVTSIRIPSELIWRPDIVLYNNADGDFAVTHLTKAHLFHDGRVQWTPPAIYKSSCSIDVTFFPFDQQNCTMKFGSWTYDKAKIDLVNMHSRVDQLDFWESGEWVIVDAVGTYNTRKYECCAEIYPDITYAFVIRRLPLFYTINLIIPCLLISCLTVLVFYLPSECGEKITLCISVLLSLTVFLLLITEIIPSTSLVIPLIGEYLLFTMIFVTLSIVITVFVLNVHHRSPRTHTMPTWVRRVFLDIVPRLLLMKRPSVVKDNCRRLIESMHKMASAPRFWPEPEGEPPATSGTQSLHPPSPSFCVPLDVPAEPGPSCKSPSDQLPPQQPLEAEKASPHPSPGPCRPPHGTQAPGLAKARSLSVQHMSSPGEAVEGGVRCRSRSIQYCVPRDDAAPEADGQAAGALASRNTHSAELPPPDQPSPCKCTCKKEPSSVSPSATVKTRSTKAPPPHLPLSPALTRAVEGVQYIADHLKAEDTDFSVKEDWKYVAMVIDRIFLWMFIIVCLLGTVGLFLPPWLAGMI
A further experiment deals with Mu-type opioid receptor (Homo sapiens, UniProt P35372). In words: biochemical. In kind it is functional.
Sequence of Mu-type opioid receptor (P35372 whole entry): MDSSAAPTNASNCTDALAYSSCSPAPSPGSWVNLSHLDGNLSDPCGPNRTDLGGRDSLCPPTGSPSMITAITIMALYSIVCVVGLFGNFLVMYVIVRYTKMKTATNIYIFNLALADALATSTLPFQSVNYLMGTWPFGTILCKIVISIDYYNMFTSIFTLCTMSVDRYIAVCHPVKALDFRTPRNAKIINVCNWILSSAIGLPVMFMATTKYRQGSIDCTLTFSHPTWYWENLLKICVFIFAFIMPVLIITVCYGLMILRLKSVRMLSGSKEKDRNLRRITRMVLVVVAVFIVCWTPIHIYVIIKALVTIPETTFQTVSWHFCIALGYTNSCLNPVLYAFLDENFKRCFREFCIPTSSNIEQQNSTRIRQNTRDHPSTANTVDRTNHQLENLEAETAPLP

SMILES strings stand for the structures.
Also: assay procedure not described here.

Sequence of 3',5'-cyclic-AMP phosphodiesterase 4D (Q08499 whole entry): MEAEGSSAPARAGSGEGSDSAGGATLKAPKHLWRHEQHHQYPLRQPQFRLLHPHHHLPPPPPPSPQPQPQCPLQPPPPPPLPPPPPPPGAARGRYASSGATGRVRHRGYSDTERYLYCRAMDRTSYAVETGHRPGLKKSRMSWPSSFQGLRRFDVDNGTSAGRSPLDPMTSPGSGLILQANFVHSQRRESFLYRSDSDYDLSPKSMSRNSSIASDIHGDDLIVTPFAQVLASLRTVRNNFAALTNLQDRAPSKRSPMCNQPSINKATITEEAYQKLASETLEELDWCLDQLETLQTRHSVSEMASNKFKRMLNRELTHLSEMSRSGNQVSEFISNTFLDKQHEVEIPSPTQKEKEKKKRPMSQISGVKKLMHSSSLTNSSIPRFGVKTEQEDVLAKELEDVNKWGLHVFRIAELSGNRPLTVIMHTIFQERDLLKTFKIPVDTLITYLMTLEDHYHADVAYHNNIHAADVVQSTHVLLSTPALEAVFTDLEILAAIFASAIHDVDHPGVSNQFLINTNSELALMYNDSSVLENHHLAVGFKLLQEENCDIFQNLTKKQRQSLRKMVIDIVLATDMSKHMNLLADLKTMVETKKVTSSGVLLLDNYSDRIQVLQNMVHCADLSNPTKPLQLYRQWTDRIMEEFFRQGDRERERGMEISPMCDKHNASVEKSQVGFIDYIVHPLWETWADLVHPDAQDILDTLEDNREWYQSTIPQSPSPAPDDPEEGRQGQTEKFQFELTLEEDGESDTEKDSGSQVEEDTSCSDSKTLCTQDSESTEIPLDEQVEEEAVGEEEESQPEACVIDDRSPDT
Sequence of Growth hormone secretagogue receptor type 1 (Q92847 whole entry): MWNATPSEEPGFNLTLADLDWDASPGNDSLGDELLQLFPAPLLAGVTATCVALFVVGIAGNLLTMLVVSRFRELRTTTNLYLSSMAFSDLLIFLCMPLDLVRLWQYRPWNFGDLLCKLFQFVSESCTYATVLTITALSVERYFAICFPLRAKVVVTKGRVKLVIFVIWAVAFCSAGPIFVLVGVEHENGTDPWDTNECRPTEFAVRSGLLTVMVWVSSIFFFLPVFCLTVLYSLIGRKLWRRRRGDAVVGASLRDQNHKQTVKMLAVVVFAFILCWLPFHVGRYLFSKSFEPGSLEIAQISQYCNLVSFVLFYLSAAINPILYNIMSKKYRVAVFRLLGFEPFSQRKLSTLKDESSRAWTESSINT
Sequence of 5-hydroxytryptamine receptor 2B (P41595 whole entry): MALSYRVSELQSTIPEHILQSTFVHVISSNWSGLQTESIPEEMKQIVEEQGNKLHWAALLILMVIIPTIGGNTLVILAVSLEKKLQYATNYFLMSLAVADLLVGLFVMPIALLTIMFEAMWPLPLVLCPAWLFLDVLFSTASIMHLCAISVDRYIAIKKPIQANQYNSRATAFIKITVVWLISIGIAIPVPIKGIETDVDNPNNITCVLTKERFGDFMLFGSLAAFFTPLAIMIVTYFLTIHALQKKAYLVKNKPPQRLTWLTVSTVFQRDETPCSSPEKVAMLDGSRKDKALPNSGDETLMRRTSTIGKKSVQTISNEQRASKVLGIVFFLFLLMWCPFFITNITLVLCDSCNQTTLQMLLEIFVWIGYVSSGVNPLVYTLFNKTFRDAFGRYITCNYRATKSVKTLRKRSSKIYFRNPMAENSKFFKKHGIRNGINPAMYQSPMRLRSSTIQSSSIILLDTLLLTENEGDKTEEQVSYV

As usually defined, the AC50 is the concentration giving half of the maximal activity seen. A lower AC50 goes with greater potency. For the compound `CC(=O)OCC[N+](C)(C)C` [ACETYLCHOLINE], the AC50 on Cannabinoid receptor 1 was more than 30 µM; in experiment [1] it was more than 30 µM; in experiment [2] it was more than 30 µM; in experiment [3] it was more than 30 µM; in [4] it was more than 10 µM; in [5] it was more than 10 µM. The AC50 in experiment [6] is more than 10 µM; in experiment [7], more than 30 µM; in [8] it was more than 30 µM; at Histamine H1 receptor, more than 10 µM; in experiment [9], more than 30 µM; in [10], more than 10 µM.

`CN(C)C(=O)Oc1cc(OC(=O)N(C)C)cc(C(O)CNC(C)(C)C)c1` (centres undefined) [BAMBUTEROL]: the concentration at half-maximal activity (AC50) (in [1]; in experiment [2]; in experiment [3]; on Estrogen receptor; in experiment [8]; in experiment [11]) was more than 30 µM in each case.

Turning to `C[C@H]1C[C@H]2[C@@H]3CCC4=CC(=O)C=C[C@]4(C)[C@@]3(Cl)[C@@H](O)C[C@]2(C)[C@@]1(O)C(=O)CO` [BECLOMETHASONE], the half-maximal activity concentration (AC50) in experiment [1] was more than 30 µM; in experiment [2] it was more than 30 µM; in [3] it was more than 30 µM; on Estrogen receptor, more than 30 µM; in experiment [4], more than 10 µM; in experiment [5] it was more than 10 µM. Further, the concentration at half-maximal activity (AC50) is more than 30 µM in [7]; more than 30 µM in [8]; more than 10 µM in experiment [11]; more than 30 µM in experiment [9]; more than 30 µM in experiment [10].

On to `CO/N=C(\C(=O)N[C@@H]1C(=O)N2C(C(=O)[O-])=C(C[n+]3cccc4c3CCC4)CS[C@H]12)c1csc(N)n1` [CEFPIROME], for which the concentration at half-maximal activity (AC50) (on Cannabinoid receptor 1; in experiment [4]; in experiment [5]; in [6]; in [7]; at Mu-type opioid receptor) was more than 30 µM throughout. The half-maximal activity concentration (AC50) (on Histamine H1 receptor; in experiment [9]; in [10]) was more than 30 µM in each case.

`Oc1c(I)cc(Cl)c2cccnc12` [CLIOQUINOL]: the AC50 was more than 30 µM at Cannabinoid receptor 1; 13 µM in experiment [4]; more than 30 µM in [5]; more than 30 µM in experiment [6]; more than 30 µM in [7]; more than 30 µM at Mu-type opioid receptor. The AC50 (at Histamine H1 receptor; in experiment [10]) was more than 30 µM each time.

Consider `CCn1cc(C(=O)O)c(=O)c2cc(F)c(N3CCNCC3)nc21` [ENOXACIN], for which the AC50 was more than 30 µM in experiment [1]; more than 30 µM in experiment [2]; more than 30 µM in experiment [3]; more than 30 µM at Estrogen receptor; more than 10 µM in experiment [4]; more than 10 µM in experiment [5]. The AC50 in experiment [6] is more than 10 µM; in experiment [7], more than 30 µM; in experiment [8] it was more than 30 µM; in [11], more than 10 µM; in [9] it was more than 10 µM; in [10], more than 10 µM.

In the case of `O=C(O)CSCC(=O)NC1CCSC1=O` (centres undefined) [ERDOSTEINE], the AC50 (at Cannabinoid receptor 1; in experiment [1]; in experiment [2]; in experiment [3]; in experiment [4]; in experiment [5]) was more than 30 µM in each case. Further, the AC50 (in experiment [6]; in experiment [7]; on Mu-type opioid receptor; in experiment [8]; on Histamine H1 receptor; in experiment [11]) was more than 30 µM throughout. The concentration at half-maximal activity (AC50) in [9] and in [10] was more than 30 µM in each case.

For `N=C(N)c1ccc2cc(OC(=O)c3ccc(N=C(N)N)cc3)ccc2c1` [NAFAMOSTAT], the AC50 was more than 30 µM at Cannabinoid receptor 1; 21 µM in experiment [1]; more than 30 µM in [2]; 10 µM in experiment [3]; 0.29 µM in experiment [4]; 17 µM in experiment [5]. The concentration at half-maximal activity (AC50) (in [6]; in experiment [7]; on Mu-type opioid receptor; in [8]; at Histamine H1 receptor; in experiment [11]) was more than 30 µM throughout. For the same compound, the figures for the AC50 in experiment [9] and in experiment [10] were more than 30 µM and 14 µM, respectively.

Regarding `O=C(O)c1cc(O)c2c3nc4ccccc4oc-3cc(=O)c2n1` [PIRENOXINE], the AC50 at Cannabinoid receptor 1 was more than 30 µM; in [1] it was more than 30 µM; in experiment [2], 5.1 µM; in [3] it was more than 30 µM; in experiment [4], more than 30 µM; in experiment [5], more than 30 µM. Also, the half-maximal activity concentration (AC50) was more than 30 µM in [6]; more than 30 µM in experiment [7]; more than 30 µM at Mu-type opioid receptor; more than 30 µM in experiment [8]; 11 µM at Histamine H1 receptor; more than 30 µM in experiment [11]. The results for the concentration at half-maximal activity (AC50) in experiment [9] and in [10] were more than 30 µM and 2.6 µM, respectively.

As to `CNCCCC1c2ccccc2C=Cc2ccccc21` [PROTRIPTYLINE], the AC50 (in experiment [1]; in experiment [2]; in [3]; at Estrogen receptor; in [4]; in experiment [6]) was more than 10 µM in each case. For the same compound, the AC50 in experiment [7] is more than 30 µM; in experiment [8], more than 10 µM; in experiment [11], more than 10 µM; in experiment [9] it was more than 30 µM; in [10], more than 30 µM.

As to `OCCN1CCN(CC/C=C2/c3ccccc3Sc3ccc(Cl)cc32)CC1` [ZUCLOPENTHIXOL], the AC50 is more than 10 µM in experiment [1]; more than 10 µM in experiment [2]; more than 10 µM in experiment [3]; more than 10 µM in experiment [4]; 1.94 µM in [5]; more than 10 µM in experiment [6]. The AC50 was more than 30 µM in experiment [7]; more than 30 µM on Mu-type opioid receptor; more than 30 µM in [8]; 0.028 µM at Histamine H1 receptor; more than 10 µM in [11]; more than 10 µM in experiment [9]. In experiment [10], this compound showed an AC50 of more than 10 µM.
